What was measured:
[1] = target: T1, rat adrenergic α1B receptor (Rattus norvegicus, UniProt P15823); assay: Radioligand binding, adrenergic α1B (Protocol Group A); conditions: 0.1 μM compound, [3H]Prazosin, read-out: percent inhibition of specific binding, Adrenergic α1B
T1 construct: rat adrenergic α1B receptor obtained from Wistar Rat liver; from tissue; host or cells: Wistar rat liver
T1 sequence (P15823 1-515): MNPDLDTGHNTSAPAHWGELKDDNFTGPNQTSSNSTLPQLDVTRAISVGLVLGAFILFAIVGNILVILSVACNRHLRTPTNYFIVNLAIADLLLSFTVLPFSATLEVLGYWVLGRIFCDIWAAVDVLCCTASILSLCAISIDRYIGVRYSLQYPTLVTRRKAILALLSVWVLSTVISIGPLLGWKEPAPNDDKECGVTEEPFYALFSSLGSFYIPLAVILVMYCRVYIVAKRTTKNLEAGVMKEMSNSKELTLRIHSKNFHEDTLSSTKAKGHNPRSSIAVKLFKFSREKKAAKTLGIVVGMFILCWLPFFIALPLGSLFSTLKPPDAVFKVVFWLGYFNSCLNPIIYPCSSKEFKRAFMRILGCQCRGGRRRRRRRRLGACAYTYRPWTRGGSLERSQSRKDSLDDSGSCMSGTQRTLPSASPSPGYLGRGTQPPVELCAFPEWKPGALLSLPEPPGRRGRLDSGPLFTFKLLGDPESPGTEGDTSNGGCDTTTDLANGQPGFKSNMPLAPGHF
Description: To evaluate in radioligand binding assays the activity of compounds of the invention, rat adrenergic α1B receptor obtained from Wistar Rat liver (Garcia-S'ainz, J. et al, Biochem. Biophys. Res. Commun. 186:760, 1992; Michel, A. et al, Br. J. Pharmacol. 98:883, 1989) in a modified Tris-HCl buffer (50 mM Tris-HCl buffer, pH 7.4, 0.5 mM EDTA) was used. Compounds of the invention were incubated with 0.25 nM [^3H]Prazosin for 60 min at 25° C. Non-specific binding was estimated in the presence of 10 μM phentolamine. Receptor proteins were filtered and washed, the filters were then counted to determine [^3H]Prazosin specifically bound. Compounds were screened at 1 μM or lower, using 1% DMSO as vehicle. Compounds of the invention were tested in this biochemical assay and percent inhibition of specific binding was determined. Biochemical assay results are presented as the percent inhibition of specific binding in Table B1a.

[2] = Stability in the presence of dog hepatocytes; type: in vitro ADME, Beagle dog; conditions: male, Beagle, dog, cryopreserved hepatocytes, pH 7.4, dog hepatocytes, 37° C., average of duplicates, ^a = 0-120 minute time points, read-out: T1/2 Dog
Description: (§1) Compounds of the invention were tested for stability in the presence of dog, rat and human hepatocytes over a 4 hour period by LC/MS/MS. The study was performed by Integrated Analytical Solutions, Berkeley, Calif.
(§2) Reference Standards and Solutions: Compounds of the invention were stored as powders at ambient temperature in a desiccator and protected from light. Reference stock solutions of Compound Nos. 50a, 50b, 79a, 82, 91a and 178d, as 20 mM in DMSO were prepared and subsequently diluted to 2 mM in MeOH to provide working stock solutions (WSS). Unused standard solutions were stored at −20° C.
(§3) Hepatocyte Preparation: Human (mixed gender), Beagle dog (male) and Sprague Dawley rat (male) cryopreserved hepatocytes were purchased from Life Technologies Corporation. Hepatocytes were removed from liquid nitrogen, quickly thawed in a 37° C. water bath and transferred to Hepatocyte Thawing/Plating Medium (Cryopreserved Hepatocyte Recovery Medium, CHRM, Life Technologies Inc.). The cells were pelleted by slow speed centrifugation (˜100×g, 6 min) and resuspended at a high cell density. Hepatocyte viability was determined by trypan blue exclusion. Hepatocyte incubation medium (Life Technologies, Inc.) was added to generate a cell density of 2.0×10^6 cells/mL.
(§4) Hepatocyte Incubations for Stability: The 2 mM WSS was diluted 1 in 200 in hepatocyte incubation medium (pH 7.4) to 10 μM. A solution containing control compounds was prepared similarly to contain 10 μM each of dextromethorphan and testosterone. The solutions of test compounds and controls at 10 μM in hepatocyte incubation medium were pre-incubated at 37° C. for 10 min. Aliquots (250 μL) of hepatocyte suspensions (at 2.0×10^6 cells/mL) were transferred to appropriate 48-well plates and pre-incubated at 37° C. for 10 minutes. Metabolism was initiated by adding 250 μL pre-incubated medium (containing test drug) to wells containing cells. A negative control reaction excluding hepatocytes was used to monitor aqueous stability and/or non-specific adsorption. The final reaction mixtures contained 5 μM of test or control compound and 1.0×10^6 cells/mL. All reactions were performed in duplicate and carried at 37° C. in an incubator. Dextromethorphan and testosterone were used as control drugs to verify hepatocyte activity.
(§5) Aliquots were removed from each metabolism reaction at 0, 0.5, 2 and 4 hours. The reactions were terminated by adding each aliquot to a vessel containing 2× volumes (80 μL) of Internal Standard Solution (acetonitrile containing 50 ng/mL 2-(2,8-dimethyl-3,4-dihydro-1H-pyrido[4,3-b]indol-5(2H)-yl)-1-(pyridin-4-yl)ethanol (ISS1), 50 ng/mL of 2-(2,8-dimethyl-3,4-dihydro-1H-pyrido[4,3-b]indol-5(2H)-yl)-1-(piperidin-1-yl)ethanone (ISS2) and 5 ng/mL diphenhydramine. Terminated reactions were centrifuged at 6000 g for 30 mins at 4° C. to remove the precipitated proteins and cell debris. Following centrifugation, 20 μL of each supernatant was transferred to a deep-well microplate and diluted with 5× volumes (100 μL) of 0.2% formic acid in water. Compound 178d samples were diluted with 5× volumes (100 μL) of 0.1% HFBA in water. Samples were analyzed by LC/MS/MS.
(§6) Calculation of Metabolism Parameters: Percent remaining was measured by dividing the analyte/IS peak area ratio at the designated sample time by the peak area ratio at time 0. ISS1 served as the IS for Compound No. 178d. ISS2 served as the IS for Compound nos. 50a, 50b, 79a, 82 and 91a. The metabolic half-life (T1/2) was calculated using all time points unless otherwise noted. The T1/2 values were calculated as 0.693/k, where k is the slope of the log analyte/internal standard peak area ratio versus time. Metabolism rate was calculated by dividing the starting concentration of substrate by the concentration of hepatocytes, then dividing by the T1/2 value.

[3] = Stability in the presence of human hepatocytes; type: in vitro ADME; conditions: both sexes, human, cryopreserved hepatocytes, pH 7.4, human hepatocytes, 37° C., average of duplicates, ^a = 0-120 minute time points, read-out: T1/2 Human
Description: as §1, §2, §3, §4, §5, §6

[4] = Stability in the presence of rat hepatocytes; type: in vitro ADME, Sprague Dawley rat; conditions: male, Sprague Dawley, rat, cryopreserved hepatocytes, pH 7.4, rat hepatocytes, 37° C., average of duplicates, ^a = 0-120 minute time points, read-out: T1/2 Rat
Description: as §1, §2, §3, §4, §5, §6

Compound	inhibition at 0.1 µM [1] [%]	half-life at 5 µM [2] [h]	half-life at 5 µM [3] [h]	half-life at 5 µM [4] [h]
Cc1ccc2c(c1)c1c(n2CC(OC(=O)N2CCCC2)c2ccncc2)CCN(C)C1 (single isomer, unassigned) [4b]	35	–	–	–
Cc1ccc2c(c1)c1c(n2C[C@@H](OC2CCCC2)c2ccncc2)CCN2CCC[C@H]12 [compound 82, (11cR)-7-[(25)-2-(cyclopentoxy)-2-(4-pyridyl)ethyl]-10-methyl-1,2,3,5,6,11c-hexahydroindolizino[7,8-b]indole]	–	0.8	0.817	0.767
Cc1ccc2c(c1)c1c(n2CC(O)c2ccncc2)CCN2CCCC12 (single isomer, unassigned) [Compound No. 178d]	–	4	2.23	> 4
Cc1cc(F)c2c(c1)c1c(n2CC(C)(O)c2cccnc2)CCN2CCCC12 (centres unmarked) [Compound No. 79a]	–	3.02	> 4	3.5
Cc1cc(Cl)c2c(c1)c1c(n2CC(C)(O)c2ccncc2)CCN2CCCC12 (single isomer, unassigned) [91a]	–	1.37	2.3	2.82
Cc1ccc2c(c1)c1c(n2CC(C)(O)c2ccc(F)nc2)CCN2CCCC12 (single isomer, unassigned) [6a]	91	–	–	–
Cc1cc2c3c(n(CC(C)(O)c4ccncc4)c2cc1Cl)CCN1CCCC31 (single isomer, unassigned) [50a]	–	2.03	1.92	2.43

— patent US20150315188A1, “COMPOUNDS AND METHODS FOR TREATMENT OF HYPERTENSION” (MEDIVATION TECHNOLOGIES, INC., priority 2012, published 2015)
